Experimental data from PubChem BioAssay (NCI).
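Exposure lasted 48 hours, with cells grown in 96-well plates and compounds tested at five concentrations. GI50 = concentration required for 50% inhibition of growth. Definition used: TGI = concentration required for complete inhibition of growth.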

Tests used:
Assay in all cases: NCI-60 cell line screen, 48 h
[1] = test system: K-562 leukemia
[2] = test system: HS 578T breast
[3] = test system: KM12 colon
[4] = test system: SF-295 CNS
[5] = test system: SK-MEL-2 melanoma
[6] = test system: MCF7 breast
[7] = test system: NCI-H226 lung
[8] = test system: SK-MEL-28 melanoma
[9] = test system: OVCAR-4 ovarian
[10] = test system: NCI/ADR-RES ovarian
[11] = test system: UO-31 renal
[12] = test system: RPMI-8226 leukemia
[13] = test system: EKVX NSCLC
[14] = test system: SR leukemia
[15] = test system: 786-0 renal
[16] = test system: HCT-15 colon
[17] = test system: SF-268 CNS
[18] = test system: PC-3 prostate
[19] = test system: HL-60(TB) leukemia
[20] = test system: OVCAR-8 ovarian
[21] = test system: SK-MEL-5 melanoma
[22] = test system: RXF 393 renal
[23] = test system: CCRF-CEM leukemia
[24] = test system: HCC-2998 colon
[25] = test system: MOLT-4 leukemia
[26] = test system: A549 NSCLC
[27] = test system: TK-10 renal
[28] = test system: UACC-257 melanoma
[29] = test system: SNB-75 CNS
[30] = test system: SN12C renal
[31] = test system: NCI-H522 lung
[32] = test system: LOX IMVI melanoma
[33] = test system: IGROV1 ovarian
[34] = test system: MDA-MB-231 breast
[35] = test system: UACC-62 melanoma
[36] = test system: ACHN renal
[37] = test system: HCT-116 colon
[38] = test system: SF-539 CNS
[39] = test system: COLO 205 colon
[40] = test system: MALME-3M melanoma
[41] = test system: MDA-MB-435
[42] = test system: CAKI-1 renal
[43] = test system: SK-OV-3 ovarian
[44] = test system: DU-145 prostate
[45] = test system: U251 CNS
[46] = test system: T-47D breast
[47] = test system: SNB-19 CNS
[48] = test system: SW-620 colon
[49] = test system: A498 renal
[50] = test system: HT29 colon
[51] = test system: OVCAR-3 ovarian
[52] = test system: NCI-H460 lung
[53] = test system: HOP-92 NSCLC
[54] = test system: M14 melanoma
[55] = test system: HOP-62 NSCLC
[56] = test system: BT-549 breast
[57] = test system: NCI-H23 lung
[58] = test system: OVCAR-5 ovarian

SMILES: Cn1cc(-c2ccc3c(Nc4cccc(NC(=O)Nc5cccc(F)c5)c4)ncnc3c2)cn1
- GI50 [1]: 2.14 µM
- TGI [1]: > 100 µM
- GI50 [2]: 1.5 µM
- TGI [2]: 9.79 µM
- GI50 [3]: 2.52 µM
- TGI [3]: 10.8 µM
- GI50 [4]: 1.81 µM
- TGI [4]: 8.42 µM
- GI50 [5]: 4.43 µM
- TGI [5]: 17.8 µM
- GI50 [6]: 1.14 µM
- TGI [6]: 5.07 µM
- GI50 [7]: 12.1 µM
- TGI [7]: 35.9 µM
- GI50 [8]: 1.55 µM
- TGI [8]: 3.08 µM
- GI50 [9]: 1.85 µM
- TGI [9]: 4.41 µM
- GI50 [10]: 10.8 µM
- TGI [10]: > 100 µM
- GI50 [11]: 2.09 µM
- TGI [11]: 13.7 µM
- GI50 [12]: 1.53 µM
- TGI [12]: 4.65 µM
- GI50 [13]: 6.22 µM
- TGI [13]: 24.3 µM
- GI50 [14]: 1.24 µM
- TGI [14]: > 100 µM
- GI50 [15]: 1.87 µM
- TGI [15]: 4.46 µM
- GI50 [16]: 2.5 µM
- TGI [16]: 13.1 µM
- GI50 [17]: 1.64 µM
- TGI [17]: 11.2 µM
- GI50 [18]: 2.78 µM
- TGI [18]: 15.5 µM
- GI50 [19]: 5.9 µM
- TGI [19]: 28 µM
- GI50 [20]: 2.25 µM
- TGI [20]: > 100 µM
- GI50 [21]: 1.53 µM
- TGI [21]: 2.94 µM
- GI50 [22]: 1.2 µM
- TGI [22]: 3.83 µM
- GI50 [23]: 0.0474 µM
- TGI [23]: 13.7 µM
- GI50 [24]: 4.81 µM
- TGI [24]: 16.2 µM
- GI50 [25]: 1.95 µM
- TGI [25]: 14.6 µM
- GI50 [26]: 1.85 µM
- TGI [26]: 17.9 µM
- GI50 [27]: 2.72 µM
- TGI [27]: 10.2 µM
- GI50 [28]: 4.5 µM
- TGI [28]: 22.5 µM
- GI50 [29]: 0.0391 µM
- TGI [29]: 9.57 µM
- GI50 [30]: 1.6 µM
- TGI [30]: 4.29 µM
- GI50 [31]: 1.22 µM
- TGI [31]: 15.9 µM
- GI50 [32]: 1.55 µM
- TGI [32]: 3.64 µM
- GI50 [33]: 1.3 µM
- TGI [33]: 11.2 µM
- GI50 [34]: 2.88 µM
- TGI [34]: 12.3 µM
- GI50 [35]: 3.21 µM
- TGI [35]: 15 µM
- GI50 [36]: 2.17 µM
- TGI [36]: 13.2 µM
- GI50 [37]: 2.04 µM
- TGI [37]: 7.9 µM
- GI50 [38]: 0.0554 µM
- TGI [38]: 2.21 µM
- GI50 [39]: 0.0503 µM
- TGI [39]: 13.4 µM
- GI50 [40]: 1.29 µM
- TGI [40]: 3.79 µM
- GI50 [41]: 1.49 µM
- TGI [41]: 2.89 µM
- GI50 [42]: 0.559 µM
- TGI [42]: 14.9 µM
- GI50 [43]: 0.61 µM
- TGI [43]: 13.1 µM
- GI50 [44]: 1.86 µM
- TGI [44]: 6.6 µM
- GI50 [45]: 1.79 µM
- TGI [45]: 5.07 µM
- GI50 [46]: 1.62 µM
- TGI [46]: 28.7 µM
- GI50 [47]: 3.16 µM
- TGI [47]: 13.5 µM
- GI50 [48]: 1.9 µM
- TGI [48]: 4.45 µM
- GI50 [49]: 0.0532 µM
- TGI [49]: 2.99 µM
- GI50 [50]: 1.97 µM
- TGI [50]: 12.6 µM
- GI50 [51]: 1.51 µM
- TGI [51]: 3.27 µM
- GI50 [52]: 0.984 µM
- TGI [52]: 2.41 µM
- GI50 [53]: 2.23 µM
- TGI [53]: 9.08 µM
- GI50 [54]: 2.61 µM
- TGI [54]: 14.9 µM
- GI50 [55]: 1.84 µM
- TGI [55]: 14.9 µM
- GI50 [56]: 4.04 µM
- TGI [56]: 16 µM
- GI50 [57]: 2.99 µM
- TGI [57]: 13.4 µM
- GI50 [58]: 10.3 µM
- TGI [58]: 22 µM
